Laboratory results: US10827753B2, “Compositions and methods for controlling nematodes” (Monsanto Technology LLC, priority 2007, dated 2020)
Read-outs that look alike come from different tables or passages of the source.

Legend:
[1] = system: Meloidogyne incognita (RKN); experiment: Seed treatment test of root knot nematode on cucumber plants; format: in vivo; details: 20 mg ai/gram seed, cucumber seeds
Method: For a given concentration the chemical is dissolved in 500 ul of acetone and one gram of cucumber seed (RKN test) or soybean seed (SCN test) is added (e.g., 20 mg active ingredient in 500 ul acetone plus 1 gram of seed). The seed solutions are agitated until all seeds were thoroughly covered with the chemical solution. The acetone is then allowed to evaporate by air drying the seeds. The seeds are planted in 2-inch pots containing sandy soil and then the pots are inoculated with 1000 Meloidogyne incognita (RKN) or 1000 Heterodera glycines (SCN) eggs per pot three days after planting. Plants are rated for galling 14 days after egg inoculation for RKN or 28 days after egg inoculation for SCN.

[2] = system: CD-1/Swiss derived albino mice; format: in vivo; details: for mortality, signs of gross toxicity and behavioral changes: three female mice, observed up to 14 days
[3] = system: caspase-3 in rat hepatoma derived H4IIE cells; experiment: Caspase-3 activity (DEVD-AMC) after compound exposure in H4IIE cells; format: cell-based; details: concentrations up to 300 μM
Method: Caspase 3 cleaves the tetrapeptide between D and AMC, thus releasing the fluorogenic […] AMC. Following the test article exposure to cells in 96-well plates, medium was aspirated from plates and PBS added to each well. Plates were stored at −80° C. to lyse cells and store samples until further analysis. On the day of analysis, plates were removed from freezer and thawed. Caspase buffer with fluorescent substrate was added to each well and incubated at room temperature for one hour. AMC release was measured in a spectrofluorometer at an excitation wavelength of 360 nm and an emission wavelength of 460 nm. Values are expressed as relative fluorescent units (RFU).

[4] = system: sting (Belonolaimus longicaudatus) nematodes; experiment: Sting nematode bench top soil assay; format: in vivo
Meloidogyne incognita = experiment: Fall nematicidal field testing on squash microplots; format: in vivo; details: for control of root galling compared with oxamyl at an equivalent rate: 2 kg/ha
Text: The test site was located at 3511 Highway F in New Melle, Mo., Saint Charles county. The soil was a native prairie/pasture covering silty clay loam soil. Holes were dug using a Bobcat 763 skid loader with a 12-inch auger to a depth of 18 inches. Total volume of each hole was about 1.2 cubic feet. Six cubic yards of topsoil and 9 tons of river sand were purchased from Dardenne Farms Topsoil. Mixing to a ratio of 4 volumes sand to 1 volume soil was accomplished using a trailer-mounted 9 cubic foot concrete mixer. Holes were filled and then re-filled 5 days later after settling. The mixture was 92.5% sand, 2.5% silt, and 5% clay. Organic matter was 0.2% and pH was 6.8.
Treatments were arranged in a block design with the blocks laid out perpendicular to the primary slope and parallel to secondary slope. There are 7 inoculated controls and 5 non-inoculated controls and the distributions of disease severity appeared independent of location.
Application rates are expressed as kg of active material per hectare, and the mg per plot is based on the surface area of the bored and filled holes (0.000008559 Ha). The DC compounds were formulated immediately before application as follows: 1) the amount required to treat all six replicates was dissolved in 300 ml of acetone, 2) for each plot 50 ml of that solution was added to a graduated cylinder with 2 ml of 12.5% Triton X100 and the volume was raised to 500 ml with tap water. The resultant mix is the same as used in the standard greenhouse assays (10% acetone, 0.05%×100). The oxamyl treatments were prepared from Vydate 2 L formulated the same way. The 500 ml was placed in a watering can and the entire volume was evenly sprinkled over the surface of the plot. No runoff occurred and pooling, if any, was short lived. The final drench volume was 0.58 ml/cm^2, compared to 0.2 ml/cm^2 used in our greenhouse, however the microplots are much deeper so the drench volume applied per soil volume treated is roughly the same.
Meloidogyne incognita eggs were harvested over a two week period and stored at approximately 5° C. until needed. A stock of 5.6 million vermiform eggs was adjusted to 9000/ml in 620 ml. One day after treatment, two holes were made in each plot about 7 cm apart and equidistant from the squash plants. Five ml of egg suspension was pipetted into each hole, which was then sealed and the plot lightly watered. A total of 90,000 vermiform eggs were added to each plot.
The first root evaluation was at 28 DAT. The tops were cut off and weighed immediately in the field, and the roots were carefully dug out so as not to disturb the remaining plant.

## c1ccc(-c2noc(-c3cccs3)n2)cc1 [compound 1822]
[1]
  percent control (galling reduction) relative to the control blank treatment: 76%
[2]; 50 mg/kg oral
  mortality, signs of gross toxicity and behavioral changes: all animals survived, gained body weight, and appeared active and healthy
[2]; 500 mg/kg oral
  mortality, signs of gross toxicity and behavioral changes: all animals died within three days
[3]
  induction of caspase-3 (apoptosis marker): no induction of caspase-3

## CCOP(=O)(NC(C)C)Oc1ccc(SC)c(C)c1 (stereo not shown) [Fenamiphos, fenamiphos, reference compound]
[4]; Other: 11.1 kg fenamiphos as positive control
  Number of nematodes recovered from treated soil after 3 days incubation with the compound: 20

## Brc1ccc(-c2cnc(-c3cccs3)o2)cc1 [compound 4776]
[1]
  percent control (galling reduction) relative to the control blank treatment: 58%
Meloidogyne incognita; 2 kg ai/ha drench, squash
  RG28 = % root galls at 28 days after treatment: 19.0%
  RG43 = % root galls at 43 days after treatment: 26.8%
Meloidogyne incognita; 28 day time point
  control of root galling compared with oxamyl at an equivalent rate: statistically better than oxamyl
Meloidogyne incognita; 43 day time point
  control of root galling compared with oxamyl at an equivalent rate: statistically better than oxamyl
[2]; 500 mg/kg oral
  mortality, signs of gross toxicity and behavioral changes: two animals died within three days
[2]; mice, oral, estimate based on the 50 and 500 mg/kg studies
  oral toxicity: lower than 500 mg/kg
[4]; 2 kg/ha
  Number of nematodes recovered from treated soil after 3 days incubation with the compound: 16
[4]; 4 kg/ha
  Number of nematodes recovered from treated soil after 3 days incubation with the compound: 19
[4]; 10 kg/ha
  Number of nematodes recovered from treated soil after 3 days incubation with the compound: 20

## Cc1cc(Cl)ccc1-c1noc(-c2ccco2)n1 [compound 5823]
[3]
  induction of caspase-3 (apoptosis marker): no induction of caspase-3
